{
  "source": "patent US11752169B2",
  "about": "“Treatment of pain with polysulfated polysaccharides” (PARADIGM BIOPHARMACEUTICALS LTD., priority 2018, dated 2023)",
  "key": {"MMP13": {"system": "MMP13", "experiment": "MMP13 immunostaining / confocal microscopy of KOA osteocyte-like cultures", "assay_type": "cell-based, human", "settings": "KOA2 cells, rhTNFα + PPS 50 μg/mL (FIG. 21)", "experimental": "FIG. 21. The effect of PPS treatment on basal and TNFα-induced MMP13 expression in human KOA osteocyte-like cultures. Confocal microscopy imaging of immunostaining of KOA2 cells untreated stained with isotype control primary antibody or mouse anti-human anti-MMP13 antibody (top row), or treated with rhTNFα alone or rhTNFα+PPS (50 μg/mL) and stained for MMP13 (green staining). All nuclei are stained with DAPI (blue). A) Isotype IgG control; B) Untreated; anti-MMP13; C) rhTNF-α-treated; anti-MMP13; and D) rhTNFa+PPS50; anti-MMP13.\n(§1) Cell seeded in 8-well chamber slides and differentiated for 28 days or freshly digested from bone were either untreated or treated with rhTNFα (1 ng/mL), PPS (50 μg/mL; ‘PPS50’) or PPS50+rhTNFα. Following differentiation, medium was removed and all wells rinsed with PBS (pH 7.4, Gibco) a total of three times. Cells were then fixed with 100 μL of Histochoice (Sigma-Aldrich) tissue fixative for 1 hour at room temperature. After fixation, wells were rinsed twice with distilled H2O and stored at 4° C. until staining. Cells were blocked with 50 μL of blocking buffer (5% v/v normal rabbit serum in 1×PBS) for 20 minutes at room temperature in a humid chamber. Cells were then rinsed with wash buffer (0.1% v/v normal rabbit serum in PBS) three times. […]"}, "[1]": {"settings": "volunteers injected subcutaneously with PPS; cited from earlier work"}, "NGF": {"system": "NGF", "experiment": "NGF immunostaining / confocal microscopy of osteocytes freshly isolated from human KOA bone", "assay_type": "cell-based", "settings": "osteocyte-enriched fractions of KOA bone digests, 24 h, qualitative (FIG. 22)", "experimental": "FIG. 22. NGF expression in isolated human osteocytes. Osteocyte-enriched fractions of sequential human trabecular bone digests were cultured for 24 h either untreated (A), treated with rhTNFα (B), PPS (0.5 μg/mL) (C) or a combination of both (D), and then examined by confocal microscopy for NGF immunoreactivity. Control cells were also immunostained using an isotype-matched negative control primary antibody (E). Images are representative of data obtained from two individual donors. Scale bars in each image represent 100 μm.\nas §1"}},
  "note": "“Also recorded” adds a separate entry of the source.",
  "data": [
    {"substance": "Sodium Pentosan Polysulfate [PPS]", "values": [
      {"measurement": "inhibition of rhTNFα-induced MMP13 at the protein level (immunostaining)", "setting": "MMP13", "value": "confirmed"},
      {"measurement": "plasma concentrations of PPS", "setting": "[1]", "value": "1000 to 3000", "unit": "ng/mL"},
      {"measurement": "NGF expression (immunostaining), combination of rhTNF-α and PPS", "setting": "NGF; PPS 0.5 μg/mL + rhTNFα", "value": "downregulated; also recorded: qualitatively less staining"},
      {"measurement": "NGF expression (immunostaining), PPS alone vs control", "setting": "NGF; PPS 0.5 μg/mL", "value": "qualitatively greater"}
    ]}
  ]
}
